From patent US10696615B2, “Prenylated hydroxystilbenes” (The University of Sydney, priority 2011, dated 2020)

What was measured:
HL-60 (TB) = test: NCI in vitro cancer screen, Leukemia; format: cell-based, human; conditions: HL-60 (TB)
MOLT-4 = test: NCI in vitro cancer screen, Leukemia; format: cell-based, human; conditions: MOLT-4
RPMI-8226 = test: NCI in vitro cancer screen, Leukemia; format: cell-based, human; conditions: RPMI-8226
HOP-62 = test: NCI in vitro cancer screen, Non-Small Cell Lung Cancer; format: cell-based, human; conditions: HOP-62
HOP-92 = test: as above; format: cell-based, human; conditions: HOP-92
NCI-H23 = test: as above; format: cell-based, human; conditions: NCI-H23
NCI-H460 = test: as above; format: cell-based, human; conditions: NCI-H460
COLO 205 = test: NCI in vitro cancer screen, Colon Cancer; format: cell-based, human; conditions: COLO 205
HCT-15 = test: NCI in vitro cancer screen, Colon Cancer; format: cell-based, human; conditions: HCT-15
HT29 = test: NCI in vitro cancer screen, Colon Cancer; format: cell-based, human; conditions: HT29
KM12 = test: NCI in vitro cancer screen, Colon Cancer; format: cell-based, human; conditions: KM12
SF-268 = test: NCI in vitro cancer screen, CNS Cancer; format: cell-based, human; conditions: SF-268
SF-539 = test: NCI in vitro cancer screen, CNS Cancer; format: cell-based; conditions: SF-539
U251 = test: NCI in vitro cancer screen, CNS Cancer; format: cell-based, human; conditions: U251
LOX IMVI = test: NCI in vitro cancer screen, Melanoma; format: cell-based, human
MALME-3M = test: NCI in vitro cancer screen, Melanoma; format: cell-based, human
SK-MEL-2 = test: NCI in vitro cancer screen, Melanoma; format: cell-based, human; conditions: SK-MEL-2
UACC-62 = test: NCI in vitro cancer screen, Melanoma; format: cell-based, human; conditions: UACC-62
OVCAR-4 = test: NCI in vitro cancer screen, Ovarian Cancer; format: cell-based, human; conditions: OVCAR-4
OVCAR-5 = test: NCI in vitro cancer screen, Ovarian Cancer; format: cell-based, human; conditions: OVCAR-5
ADR-RES (NCI/ADR-RES) = test: NCI in vitro cancer screen, Ovarian Cancer; format: cell-based, human; conditions: Homo sapiens, NCI/ADR-RES
A498 = test: NCI in vitro cancer screen, Renal Cancer; format: cell-based, human; conditions: A498
CAKI-1 = test: NCI in vitro cancer screen, Renal Cancer; format: cell-based, human; conditions: CAKI-1
SN12C = test: NCI in vitro cancer screen, Renal Cancer; format: cell-based, human
TK-10 = test: NCI in vitro cancer screen, Renal Cancer; format: cell-based, human; conditions: TK-10
UO-31 = test: NCI in vitro cancer screen, Renal Cancer; format: cell-based, human; conditions: UO-31
PC-3 = test: NCI in vitro cancer screen, Prostate Cancer; format: cell-based, human; conditions: PC-3
T-47D = test: NCI in vitro cancer screen, Breast Cancer; format: cell-based, human
human tumor cell lines = test: NCI in vitro cancer screen, whole panel (summary statements); format: cell-based
[1] = Homo sapiens, read-out: LC50 (the source's name)

COc1cc(/C=C/c2cc(O)cc(OC)c2CC=C(C)C)ccc1O [USYDS1, (E)-2-(3-methyl-2-buten-1-yl)-4′,5-dihydroxy-3,3′-dimethoxystilbene]
TGI (HL-60 (TB)): 0.06 µM | GI50 (HL-60 (TB); Homo sapiens): 0.02 µM | CC50 (HL-60 (TB); [1]): 68.9 µM | GI50 (MOLT-4; Homo sapiens): 0.43 µM | CC50 (MOLT-4; [1]): 80.2 µM | TGI (MOLT-4): 12.3 µM | GI50 (RPMI-8226; Homo sapiens): 0.11 µM | CC50 (RPMI-8226; [1]): > 100 µM | TGI (RPMI-8226): 14.8 µM | TGI (HOP-62): 16.0 µM | GI50 (HOP-62; Homo sapiens): 0.44 µM | CC50 (HOP-62; [1]): 42.2 µM | TGI (HOP-92): 12.3 µM | GI50 (HOP-92; Homo sapiens): 0.06 µM | CC50 (HOP-92; [1]): 39.6 µM | GI50 (NCI-H23; Homo sapiens): 0.28 µM | LC50 (NCI-H23; Homo sapiens): 62.5 µM | TGI (NCI-H23): 15.1 µM | GI50 (NCI-H460; Homo sapiens): 0.23 µM | CC50 (NCI-H460; [1]): 42 µM | TGI (NCI-H460): 1.38 µM | TGI (COLO 205): 16.1 µM | GI50 (COLO 205; Homo sapiens): 3.86 µM | CC50 (COLO 205; [1]): 42.6 µM | TGI (HCT-15): 16.1 µM | GI50 (HCT-15; Homo sapiens): 0.05 µM | CC50 (HCT-15; [1]): > 100 µM | TGI (HT29): 15.3 µM | GI50 (HT29; Homo sapiens, HT-29): 4.73 µM | CC50 (HT29; Homo sapiens, HT-29, read-out: LC50 (the source's name)): 44.4 µM | GI50 (KM12; Homo sapiens): 0.32 µM | CC50 (KM12; [1]): 46.7 µM | TGI (KM12): 13.9 µM | GI50 (SF-268; Homo sapiens): 0.25 µM | CC50 (SF-268; [1]): 50.2 µM | TGI (SF-268): 14.1 µM | GI50 (SF-539; Homo sapiens): 0.04 µM | CC50 (SF-539; [1]): 48.6 µM | TGI (SF-539): 14.4 µM | GI50 (U251; Homo sapiens, U-251): 0.37 µM | CC50 (U251; Homo sapiens, U-251, read-out: LC50 (the source's name)): 36 µM | TGI (U251): 10.9 µM | TGI (LOX IMVI): 16.2 µM | GI50 (LOX IMVI; Homo sapiens): 0.05 µM | CC50 (LOX IMVI; [1]): 58.8 µM | GI50 (MALME-3M; Homo sapiens, Malme-3M): 3.47 µM | CC50 (MALME-3M; Homo sapiens, Malme-3M, read-out: LC50 (the source's name)): 78.3 µM | TGI (MALME-3M; MALME-3M): 25.8 µM | GI50 (SK-MEL-2; Homo sapiens): 0.32 µM | LC50 (SK-MEL-2; Homo sapiens): 38 µM | TGI (SK-MEL-2): 10.6 µM | GI50 (UACC-62; Homo sapiens): 1.62 µM | CC50 (UACC-62; [1]): 46.6 µM | TGI (UACC-62): 18.3 µM | GI50 (OVCAR-4; Homo sapiens): 0.58 µM | CC50 (OVCAR-4; [1]): 52 µM | TGI (OVCAR-4): 18.4 µM | GI50 (OVCAR-5; Homo sapiens): 6 µM | CC50 (OVCAR-5; [1]): 55.3 µM | TGI (OVCAR-5): 21.4 µM | GI50 (ADR-RES (NCI/ADR-RES)): 0.03 µM | CC50 (ADR-RES (NCI/ADR-RES); read-out: LC50 (the source's name)): 70.7 µM | TGI (A498): 8.45 µM | GI50 (A498; Homo sapiens): 1.84 µM | CC50 (A498; [1]): 32.2 µM | TGI (CAKI-1): 39.3 µM | GI50 (CAKI-1; Homo sapiens): 4.77 µM | CC50 (CAKI-1; [1]): > 100 µM | TGI (SN12C): 16.9 µM | GI50 (SN12C; Homo sapiens): 0.99 µM | CC50 (SN12C; [1]): 54.2 µM | GI50 (TK-10; Homo sapiens): 4.1 µM | LC50 (TK-10; Homo sapiens): 40.5 µM | TGI (TK-10): 15.7 µM | GI50 (UO-31; Homo sapiens): 0.25 µM | CC50 (UO-31; [1]): 51.3 µM | TGI (UO-31): 16.0 µM | GI50 (PC-3; Homo sapiens): 0.42 µM | CC50 (PC-3; [1]): 47.9 µM | TGI (PC-3): 16.1 µM | TGI (T-47D): 19.8 µM | GI50 (T-47D; Homo sapiens, T47D): 0.72 µM | CC50 (T-47D; Homo sapiens, T47D, read-out: LC50 (the source's name)): 67.4 µM | GI50 (human tumor cell lines; Homo sapiens, range over almost all types of tumor cells): 0.02 to 5 µM | fold more potent than piceatannol (human tumor cell lines; inhibition of proliferation of almost all types of tumor cells): approximately 250 fold | order of potency in the inhibition of cancerous cell growth (human tumor cell lines; result in words): most potent activity
